{"source": "patent US11253508B2", "about": "“PPARy agonist for treatment of progressive supranuclear palsy” (Coherus Biosciences, Inc., priority 2017, dated 2022)", "key": {"[1]": {"settings": "subjects taking INT131 vs pioglitazone; DePaoli et al. Diabetes Care 2014; cited from earlier work"}, "[2]": {"settings": "in words; cited from earlier work"}, "adiponectin [3]": {"system": "adiponectin", "assay": "14-day study of serum adiponectin levels in healthy subjects", "assay_type": "in vivo, human", "procedure": "A study was conducted to determine the effect of INT131 on serum adiponectin levels. Thirty healthy subjects were randomly selected to receive either placebo, 0.1 mg INT131, 1 mg INT131 or 4 mg INT131 daily for 14 days. To measure adiponectin levels blood was drawn at Days 1, 4, 8 and 14."}, "HbA1c [4]": {"system": "HbA1c", "settings": "DePaoli et al. Diabetes Care 2014; cited from earlier work"}, "HbA1c [5]": {"system": "HbA1c", "assay": "24-week randomized, double-blind, placebo-controlled study: HbA1c levels in subjects with type 2 diabetes", "assay_type": "in vivo, human", "settings": "24 weeks"}, "[6]": {"system": "subjects with Relapsing Remitting Multiple Sclerosis (RRMS)", "assay": "6-month placebo-controlled MRI study in Relapsing Remitting Multiple Sclerosis (CE lesions, T2 lesions, brain volume)", "assay_type": "in vivo, human", "settings": "for cumulative CE lesions / reduction of CE lesion burden vs. placebo / cumulative CE lesions, LSMean: over 6 months; for cumulative CE lesions: complete case analysis, placebo 7.8; for cumulative CE lesions, LSMean: placebo LSMean 6.49", "procedure": "227 treatment-naive adult subjects (mean age 31 [range 18-50]; 65% female) were randomized into one of three arms: oral CHS-131 at 3 mg (n=76); oral CHS-131 at 1 mg (n=76); placebo (n=75), at 21 sites in Russia. 97% completed Part 1. Inclusion criteria: Relapsing Remitting Multiple Sclerosis (RRMS) for ≤3 years, ≥1 gadolinium-positive lesion within 1-year of enrollment, and an EDSS≤6 at screening. The patients underwent monthly MRI examinations with contrast to identify new inflammatory lesions. All […] were read blinded at the Buffalo Neuroimaging Center (Buffalo, N.Y.). In addition to CE lesions the images were scored for cumulative new/enlarged T2 lesions, and serial cortical and whole brain volumetric analysis."}, "adiponectin [7]": {"system": "adiponectin", "assay": "24-week randomized, double-blind, placebo-controlled study: serum adiponectin levels in subjects with type 2 diabetes", "assay_type": "in vivo, human", "settings": "for Mean Change in adiponectin from baseline to Week 24: LOCF; for Mean Change in adiponectin from baseline to Week 24 / Mean Adiponectin, Week 24 / Mean Adiponectin, Week 0: type 2 diabetes, serum; for Mean Adiponectin, Week 0: baseline (Week 0)", "procedure": "A randomized, double-blind, placebo-controlled, 24-week study was conducted in which adiponectin levels were measured. […] 367 subjects with type 2 diabetes (TD2)—a disease in which patient adiponectin levels are reduced—were randomly assigned to receive either 0.5, 1, 2 or 3 milligrams (“mg”) of INT131 besylate, 45 mg of pioglitazone or placebo daily for 24 weeks. To measure adiponectin levels blood was drawn at Weeks 0, 2, 6, 12 and 24.\nAt baseline (Week 0) mean adiponectin levels were 1.94 micrograms per milliliter (“μg/mL”). The mean adiponectin levels at baseline and Week 24, and the mean change in adiponectin levels from baseline (Week 0) to Week 24 are disclosed in Table 1, below. The standard deviation for samples tested in each group is listed in (parenthesis). Mean baseline adiponectin values were similar for the treatment groups."}}, "data": [{"smiles": "O=S(=O)(Nc1cc(Cl)c(Oc2cnc3ccccc3c2)c(Cl)c1)c1ccc(Cl)cc1Cl", "note": "[INT131]", "values": [{"measurement": "side effects versus pioglitazone", "setting": "[1]", "result": "less edema, weight gain, and hemodilution"}, {"measurement": "crossing of the blood brain barrier", "setting": "[2]", "result": "readily crosses the blood brain barrier"}, {"measurement": "change in serum adiponectin levels Day 1 to Day 14 and over placebo", "setting": "adiponectin [3]; 0.1 mg daily for 14 days", "result": "no significant change"}, {"measurement": "change in serum adiponectin levels over placebo and from Day 1 to Day 14", "setting": "adiponectin [3]; 1 mg or 4 mg daily for 14 days", "result": "significant change"}, {"measurement": "efficacy in reducing HbA1c levels versus 45 mg of pioglitazone", "setting": "HbA1c [4]", "result": "equally efficacious"}, {"measurement": "reduction of HbA1c levels as compared to placebo", "setting": "HbA1c [5]; 1, 2, and 3 mg doses daily", "result": "statistically significant reduction"}, {"measurement": "reduction of HbA1c levels compared with 45 mg of pioglitazone", "setting": "HbA1c [5]; 2 and 3 mg doses daily", "result": "at least as well as 45 mg of pioglitazone"}, {"measurement": "cumulative CE lesions", "setting": "[6]; 1 mg oral", "result": 7.6}, {"measurement": "reduction of CE lesion burden vs. placebo", "setting": "[6]; 1 mg oral, p=ns, RRMS", "result": 21, "unit": "%"}, {"measurement": "cumulative CE lesions, LSMean", "setting": "[6]; 1 mg oral", "result": 5.15}, {"measurement": "reduction of new/enlarged T2 lesions compared to placebo", "setting": "[6]; 1 mg, p=ns, RRMS", "result": 14, "unit": "%"}, {"measurement": "cumulative CE lesions", "setting": "[6]; 3 mg daily oral", "result": 4.2, "unit": "lesions"}, {"measurement": "reduction of CE lesion burden vs. placebo", "setting": "[6]; 3 mg daily oral, p=0.003, RRMS", "result": 52, "unit": "%"}, {"measurement": "cumulative CE lesions, LSMean", "setting": "[6]; 3 mg daily oral", "result": 3.10}, {"measurement": "less cortical volume loss compared to placebo", "setting": "[6]; 3 mg daily, 6 months, RRMS", "result": 34.2, "unit": "%"}, {"measurement": "less whole brain volume loss compared to placebo", "setting": "[6]; 3 mg daily, 6 months, RRMS", "result": 50, "unit": "%"}, {"measurement": "reduction of new/enlarged T2 lesions compared to placebo", "setting": "[6]; 3 mg, p=0.0767, RRMS", "result": 30, "unit": "%"}, {"measurement": "Mean Change in adiponectin from baseline to Week 24", "setting": "adiponectin [7]; 0.5 mg daily", "result": 0.56, "unit": "µg/mL"}, {"measurement": "Mean Change in adiponectin from baseline to Week 24", "setting": "adiponectin [7]; 1 mg daily", "result": 1.28, "unit": "µg/mL"}, {"measurement": "adiponectin treatment comparison with placebo", "setting": "adiponectin [7]; 1 mg, 2 mg, and 3 mg doses, p≤0.0109", "result": "statistically significant"}, {"measurement": "Mean Change in adiponectin from baseline to Week 24", "setting": "adiponectin [7]; 2 mg daily", "result": 3.27, "unit": "µg/mL"}, {"measurement": "Mean Change in adiponectin from baseline to Week 24", "setting": "adiponectin [7]; 3 mg daily", "result": 3.83, "unit": "µg/mL"}, {"measurement": "upregulation of serum adiponectin levels compared with pioglitazone", "setting": "adiponectin [7]; 2 or 3 mg INT131 vs at least 22 times the amount of pioglitazone", "result": "greater upregulation"}, {"measurement": "Mean Adiponectin, Week 24", "setting": "adiponectin [7]; 0.5 mg daily", "result": 2.28, "unit": "µg/mL"}, {"measurement": "Mean Adiponectin, Week 24", "setting": "adiponectin [7]; 1 mg daily", "result": 3.15, "unit": "µg/mL"}, {"measurement": "Mean Adiponectin, Week 24", "setting": "adiponectin [7]; 2 mg daily", "result": 5.14, "unit": "µg/mL"}, {"measurement": "Mean Adiponectin, Week 24", "setting": "adiponectin [7]; 3 mg daily", "result": 5.83, "unit": "µg/mL"}, {"measurement": "Mean Adiponectin, Week 0", "setting": "adiponectin [7]; 0.5 mg INT131 besylate daily group", "result": 1.73, "unit": "µg/mL"}, {"measurement": "Mean Adiponectin, Week 0", "setting": "adiponectin [7]; 1 mg INT131 besylate daily group", "result": 1.87, "unit": "µg/mL"}, {"measurement": "Mean Adiponectin, Week 0", "setting": "adiponectin [7]; 2 mg INT131 besylate daily group", "result": 1.87, "unit": "µg/mL"}, {"measurement": "Mean Adiponectin, Week 0", "setting": "adiponectin [7]; 3 mg INT131 besylate daily group", "result": 2.00, "unit": "µg/mL"}]}, {"smiles": "CCc1ccc(CCOc2ccc(CC3SC(=O)NC3=O)cc2)nc1", "note": "(stereo not shown) [Pioglitazone, pioglitazone, reference compound]", "values": [{"measurement": "Mean Change in adiponectin from baseline to Week 24", "setting": "adiponectin [7]; 45 mg daily", "result": 2.96, "unit": "µg/mL"}, {"measurement": "Mean Adiponectin, Week 24", "setting": "adiponectin [7]; 45 mg daily", "result": 5.28, "unit": "µg/mL"}, {"measurement": "Mean Adiponectin, Week 0", "setting": "adiponectin [7]; 45 mg pioglitazone daily group", "result": 2.32, "unit": "µg/mL"}]}]}
